Experimental data: patent US20260034091A1, “Compositions and Methods for Treating Metabolic Disorders” (The Regents of the University of California, priority 2022, published 2026)

Columns and labels:
[1] = test system: CDAHFD induced late stage NAFLD/NASH in mice; assay: Rescue effect of TOFA in CDAHFD induced late-stage NAFLD/NASH progression; type: in vivo, C57BL/6 male mice; conditions: 250 mg/kg daily, four weeks
Method: Six-week-old C57BL/6 male mice were fed with a L-Amino Acid Diet With 60 kcal % Fat With 0.1% Methionine and No Added Choline (Research Diets A06071302i) for eight weeks before introduction of either vehicle (control) or 250 mg/kg of TOFA daily via twice daily controlled oral gavage for an additional four weeks (FIG. 3A). Upon study termination at 12 weeks, serum and liver samples were collected. Serum liver damage biomarkers, ALT and AST, were measured by commercially available kits (abcam105134 and abcam 105135, respectively). Hepatic and serum triglyceride levels were measured from a commercially available kit (abcam65336). Liver samples were fixed in 4% paraformaldehyde and embedded in paraffin blocks for sectioning and subsequently stained with hematoxylin and eosin (H&E) or Picrosirius Red with a fast green dye background. Frozen fresh liver tissue was embedded in OCT, sectioned, and subsequently stained with Oil Red O.

[2] = test system: 60% HFD diet-induced obesity in mice; assay: Dose-dependent effect of TOFA in 60% HFD mouse model of diet-induced obesity (DIO); type: in vivo, C57BL/6J male mice; conditions: for body weight: oral
Method: Six-week-old C57BL/6J male mice were fed with a 60 kcal % fat diet (Research Diets A12492i) for ten weeks before introduction of either vehicle (control) or TOFA, at varying doses, for an additional two weeks. TOFA was orally administered in doses of either 12.5, 25, 62.5, or 125 mg/kg, BID. Mice weights and food intake were monitored during the treatment time course. Prior to harvest, mice underwent whole body composition analysis (EchoMRI™ 2012). Upon study termination at 12 weeks, serum and liver samples were collected. Hepatic and serum triglyceride and cholesterol levels were measured by commercially available kits (abcam65336 and abcam65390, respectively). Additional liver samples were fixed in 4% paraformaldehyde and embedded in paraffin blocks for sectioning and subsequently stained with hematoxylin and eosin (H&E).

[3] = test system: 60% kcal fat diet induced metabolic syndrome and early stage NAFLD in mice; assay: Rescue effect of TOFA in 60% kcal fat diet induced early-stage hepatic steatosis and associated metabolic disorders; type: in vivo, C57BL/6 male mice
Method: Six-week-old C57BL/6 male mice were fed with a 60 kcal % fat diet (Research Diets A12492i) for seven weeks before introduction of either vehicle (control) or 250 mg/kg initial loading dose of TOFA daily via twice daily oral gavage for one week (FIG. 2A). Mice were then treated with either vehicle (control) or 125 mg/kg maintenance dose of TOFA daily via twice daily gavage for three additional weeks. Mice weights were tracked during the entire time course. After three weeks of treatment, an intraperitoneal glucose tolerance test (IP-GTT) and insulin tolerance test (IP-ITT) were performed. Prior to these tests, mice were fasted for six hours before a challenge of either 1 g/kg D-glucose or 0.75 U/kg HumulinR (Eli Lilly) and blood glucose levels were monitored for two hours (Bayer Contour Next). Venous fasting blood was collected through the tail vein and used to measure fasting insulin levels by commercially available ELISA kits (CrystalChem90080). Prior to harvest, mice underwent whole body composition analysis (EchoMRI™ 2012). Upon study termination at 11 weeks, serum and liver samples were collected. Serum liver damage biomarkers, ALT and AST, were measured by commercially available kits (abcam 105134 and abcam105135, respectively). Hepatic and serum triglyceride levels were measured from a commercially available kit (abcam65336).

[4] = test system: 60% HFD diet-induced obesity with PPARA KO; assay: TOFA in genetic PPARA knockout mice, 60% HFD diet-induced obesity (DIO) model; type: in vivo, PPARA knockout (PPARA KO) male mice
Method: Six-week-old genetic PPARA knockout (PPARA KO) male mice were fed with a L-amino acid diet with 60 kcal % fat with 0.1% methionine and no added choline (CDAHFD; Research Diets A06071302i) for three weeks or fed with a 60 kcal % fat diet (DIO; Research Diets A12492i) for eight weeks before introduction of either vehicle (control) or 125 mg/kg of TOFA, BID, via oral gavage for an additional two weeks (FIG. 11A and FIG. 11J, respectively). C57BL/6J (WT) mice were fed with the CDAHFD and underwent similar experimental conditions and time course. Mice weights and adverse events were monitored during the treatment time course. Upon study termination, serum and liver samples were collected. Serum liver damage biomarkers, ALT and AST, were measured by commercially available kits (abcam105134 and abcam 105135, respectively). Hepatic and serum triglyceride levels were measured from a commercially available kit (abcam65336). Total RNA was extracted from liver tissues (Qiagen RNeasy kit 74106), and cDNA was prepared (BioRAD iScript™M Reverse Transcription) according to manufacturer's protocols. Quantitative PCR (qPCR) was performed with fast SYBR Green Mix (ThermoFisher A25742) on the QuantStudio6 System (Applied Biosciences). Protein expression levels of liver samples were measured by western blot using antibodies against ACC1/2 (CST3662, 1:1000), VLDLR (AF2258, 1:2000), CPT1A (CST12252, 1:1000), PPARA (abcam126285, 1:1000) and beta-tubulin (CST2146, 1:1000). Membranes were developed using a HRP secondary antibody (1:5000) and visualized using an enhanced chemiluminescent HRP substrate (Thermo34577). Additional liver samples were fixed in 4% paraformaldehyde and embedded in paraffin blocks for sectioning and subsequently stained with hematoxylin and eosin (H&E). Frozen fresh liver tissue was embedded in OCT, sectioned, and subsequently stained with Oil Red O.

[5] = scored per Kleiner, et al. (2005)
[6] = 12.5, 25, 62.5, or 125 mg/kg, BID, two weeks
[7] = 250 mg/kg daily 1 week then 125 mg/kg daily 3 weeks, twice daily oral gavage

CCCCCCCCCCCCCCOc1ccc(C(=O)O)o1 [TOFA, 5-(Tetradecyloxy)-2-furoic acid]
cytoplasmic vacuolations by H&E staining ([1]; liver sections): decreased cytoplasmic vacuolations | fibrosis by Picrosirius Red staining ([1]; liver sections): decreased fibrosis | lipid content by Oil Red O staining ([1]; liver sections): reduction in lipid content | ballooning (histopathological score) [1, 5]: reductions | degree of hepatic steatosis (histopathological score) [1, 5]: decreased degree of hepatic steatosis | fibrosis (histopathological score) [1, 5]: reductions | inflammation (histopathological score) [1, 5]: reductions | liver triglyceride content ([1]; twice daily oral gavage): reduced | serum ALT activity levels ([1]; twice daily oral gavage): significant decrease | serum AST levels ([1]; twice daily oral gavage): averaged reduction | serum triglyceride levels ([1]; twice daily oral gavage): no increase | food intake [2, 6]: remained constant | hepatic steatosis (H&E liver sections) [2, 6]: improvement in hepatic steatosis in a dose-dependent manner | serum cholesterol levels (HDL and VLDL/LDL fractions) [2, 6]: dose-dependent decrease | serum triglyceride levels [2, 6]: dose-dependent decrease | overall lean mass (EchoMRI) ([2]; all treatment groups): no changes | body weight ([2]; highest dose 125 mg/kg, BID, two weeks): weight loss | fat mass as a percentage of body weight (EchoMRI) ([2]; highest dose treatment group (125 mg/kg, BID)): decrease in fat mass as a percentage of body weight | liver triglyceride levels ([2]; highest dosing treatment regimens): striking decreases | body weight ([2]; lower doses (12.5, 25, 62.5 mg/kg, BID), two weeks): smaller or negligible changes in body weight | body weight [3, 7]: weight loss compared to the vehicle control treated mice | fat mass relative to whole body weight (EchoMRI) [3, 7]: significant reduction of fat mass | food intake [3, 7]: without impacting food intake | lean mass relative to whole body weight (EchoMRI) [3, 7]: increase in lean mass | fasting blood glucose levels ([3]; after three weeks of treatment, 6 h fast): vast improvements | insulin tolerance test (IP-ITT) ([3]; after three weeks of treatment, 6 h fast, 0.75 U/kg HumulinR): improved insulin sensitivity | intraperitoneal glucose tolerance test (IP-GTT) ([3]; after three weeks of treatment, 6 h fast, 1 g/kg D-glucose): more glucose tolerant | fasting insulin levels ([3]; after three weeks of treatment, ELISA): significantly lower | hepatic levels of triglycerides ([3]; study termination at 11 weeks): significantly reduced | serum ALT ([3]; study termination at 11 weeks): no significant changes | serum AST ([3]; study termination at 11 weeks): no significant changes | serum levels of triglycerides ([3]; study termination at 11 weeks): significantly reduced | body weight upon treatment start ([4]; 125 mg/kg BID oral gavage): decrease in weight | Vldlr mRNA (RT-qPCR) ([4]; 125 mg/kg BID, two weeks): blunted response | hepatic steatosis (H&E-stained liver sections) ([4]; 125 mg/kg BID, two weeks): minimal changes in hepatic steatosis | serum triglyceride (serum lipid levels) ([4]; 125 mg/kg BID, two weeks): elevated serum lipid levels | adverse events ([4]; 125 mg/kg BID, two-week treatment period): Adverse events were observed
